According to the supplement of paper PMC11451515:

System: SEM cells
Experiment: cell viability relative to DMSO control; higher = less cytotoxic
Details: 48 h
Summary of the method: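 Library compounds in DMSO were pin-dosed in an 11-point threefold series (47 μM to 0.79 nM) onto leukemia cells in 1536-well plates (5 μl). Plates held 500 cells/well of NOMO1 or SEM or 1000 cells/well of P12-Ichikawa, each adapted for at least four passages in each medium. Luminescence was read with CellTiter-Glo One after 48 h at 37°C. Viability means the per-plate percentage relative to DMSO wells, using cell-free wells as background.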

[1] = HPLM + 10% dialyzed FBS, 0.000781 µM
[2] = HPLM + 10% dialyzed FBS, 0.00234 µM
[3] = HPLM + 10% dialyzed FBS, 0.00702 µM
[4] = HPLM + 10% dialyzed FBS, 0.0211 µM
[5] = HPLM + 10% dialyzed FBS, 0.0632 µM
[6] = HPLM + 10% dialyzed FBS, 0.19 µM
[7] = HPLM + 10% dialyzed FBS, 0.569 µM
[8] = HPLM + 10% dialyzed FBS, 1.71 µM
[9] = HPLM + 10% dialyzed FBS, 5.12 µM
[10] = HPLM + 10% dialyzed FBS, 15.4 µM
[11] = HPLM + 10% dialyzed FBS, 46.1 µM
[12] = RPMI 5 mM glucose + 10% FBS, 0.000781 µM
[13] = RPMI 5 mM glucose + 10% FBS, 0.00234 µM
[14] = RPMI 5 mM glucose + 10% FBS, 0.00702 µM
[15] = RPMI 5 mM glucose + 10% FBS, 0.0211 µM
[16] = RPMI 5 mM glucose + 10% FBS, 0.0632 µM
[17] = RPMI 5 mM glucose + 10% FBS, 0.19 µM
[18] = RPMI 5 mM glucose + 10% FBS, 0.569 µM
[19] = RPMI 5 mM glucose + 10% FBS, 1.71 µM
[20] = RPMI 5 mM glucose + 10% FBS, 5.12 µM
[21] = RPMI 5 mM glucose + 10% FBS, 15.4 µM
[22] = RPMI 5 mM glucose + 10% FBS, 46.1 µM
[23] = RPMI 5 mM glucose + 10% dialyzed FBS, 0.000781 µM
[24] = RPMI 5 mM glucose + 10% dialyzed FBS, 0.00234 µM
[25] = RPMI 5 mM glucose + 10% dialyzed FBS, 0.00702 µM
[26] = RPMI 5 mM glucose + 10% dialyzed FBS, 0.0211 µM
[27] = RPMI 5 mM glucose + 10% dialyzed FBS, 0.0632 µM
[28] = RPMI 5 mM glucose + 10% dialyzed FBS, 0.19 µM
[29] = RPMI 5 mM glucose + 10% dialyzed FBS, 0.569 µM
[30] = RPMI 5 mM glucose + 10% dialyzed FBS, 1.71 µM
[31] = RPMI 5 mM glucose + 10% dialyzed FBS, 5.12 µM
[32] = RPMI 5 mM glucose + 10% dialyzed FBS, 15.4 µM
[33] = RPMI 5 mM glucose + 10% dialyzed FBS, 46.1 µM

SMILES	cell viability [1]	cell viability [2]	cell viability [3]	cell viability [4]	cell viability [5]	cell viability [6]	cell viability [7]	cell viability [8]	cell viability [9]	cell viability [10]	cell viability [11]	cell viability [12]	cell viability [13]	cell viability [14]	cell viability [15]	cell viability [16]	cell viability [17]	cell viability [18]	cell viability [19]	cell viability [20]	cell viability [21]	cell viability [22]	cell viability [23]	cell viability [24]	cell viability [25]	cell viability [26]	cell viability [27]	cell viability [28]	cell viability [29]	cell viability [30]	cell viability [31]	cell viability [32]	cell viability [33]
Nc1ncnc2c1c(-c1cccc(OCc3ccccc3)c1)cn2C1CC(CN2CCCC2)C1 (configuration not stated)	97.6%	112%	120%	108%	113%	111%	89.8%	83.1%	63.8%	45.4%	29.6%	89.4%	113%	125%	115%	128%	121%	103%	95.3%	87.8%	54.8%	31.5%	–	–	–	–	–	–	–	–	–	–	–
COc1cc(C(=O)NS(=O)(=O)c2ccccc2C)ccc1Cc1cn(C)c2ccc(NC(=O)OC3CCCC3)cc12	59.7%	55.9%	66.9%	73.4%	87.5%	90%	80.7%	70%	64.4%	62.6%	5.13%	85.4%	83.3%	73.3%	63.4%	92.4%	85.2%	39.6%	70.5%	78.9%	71.3%	4.48%	69.7%	54.8%	64.2%	76.6%	77.9%	83.2%	62.4%	76.5%	63%	72.5%	5.4%
OC[C@H]1O[C@@H]2[C@@H](OC\3=N\C(=N)\C=C/[N@@]23)[C@@H]1O	94%	107%	93.1%	97.8%	84.4%	47.9%	34.6%	28.1%	21.9%	16.1%	14.5%	105%	116%	102%	117%	87%	46.9%	41.9%	23.3%	16%	13.8%	13.5%	85.3%	86.2%	99.8%	81.1%	59.8%	37.8%	22.4%	14.8%	13%	10.7%	8.17%
C[C@H]1COC/2=C1/C(=O)C(=O)C3=C4CCCC(C)(C)C4=CC=C23	116%	93.8%	113%	126%	126%	134%	125%	106%	92.1%	84.1%	43.1%	124%	114%	135%	128%	141%	130%	106%	85.3%	42.1%	38.1%	12.5%	112%	107%	118%	128%	140%	116%	111%	104%	67.4%	64.5%	17.3%
CCOC(=O)/C=C/[C@H](C[C@@H]1CCNC1=O)NC(=O)[C@@H](CC(=O)[C@@H](NC(=O)c1cc(C)on1)C(C)C)Cc1ccc(F)cc1	90.8%	101%	103%	90.4%	111%	116%	110%	116%	115%	113%	105%	115%	121%	118%	79.8%	127%	116%	123%	127%	115%	97.3%	104%	100%	120%	119%	82.5%	136%	133%	128%	127%	129%	132%	108%
Cc1ccc2c(c1)c1c(n2CCc2ccc(C)nc2)CCN(C)C1	110%	124%	120%	122%	133%	131%	117%	121%	135%	120%	106%	116%	117%	145%	147%	148%	155%	140%	127%	138%	134%	109%	–	–	–	–	–	–	–	–	–	–	–
CC(C)C[C@H](NC(=O)[C@@H](O)[C@H](N)Cc1ccccc1)C(=O)O	86%	122%	121%	131%	136%	119%	114%	128%	120%	114%	10.7%	59.2%	122%	127%	123%	133%	115%	118%	121%	109%	117%	8.04%	62.3%	119%	136%	135%	129%	123%	127%	132%	131%	116%	13.2%
CNC(=O)C1=CC=C(C)C(=C1)N2C(=C/C(=C(/Br)C2=O)OCC3=C(F)C=C(F)C=C3)\C	109%	116%	123%	106%	126%	123%	131%	130%	125%	124%	120%	110%	127%	124%	122%	124%	116%	131%	139%	116%	113%	101%	115%	118%	136%	136%	134%	155%	148%	131%	109%	120%	103%
